The IC50 is the concentration needed to halve the response being measured. Lower therefore signals greater potency.

The test relates to mTORc1 signaling, pS6 (Ser240/244) in MEF TSCl−/− cells. Description: Cell-based assay for rapalog potency (pS6) in MEF TSCl−/− cells. The following applies: Mus musculus, 2 hours treatment, average from multiple assays. How it is done:
Rapalog potency was determined using MEF TSCl−/− cell based assay. MEF TSCl−/− cells are Mouse Embryonic Fibroblasts deficient in Tuberous sclerosis protein—TSCl, which negatively regulates mTORc1 signaling and thus display constitutive mTORc1 activation, resulting in phosphorylation (activation) of downstream molecules. This cell-based assay is used to measure inhibition (de-phosphorylation) of S6 and 4EBP1 by rapalogs or other mTOR inhibitors.
MEF TSCl−/− cells were plated on Poly-D-lysine coated 384 well Griener clear bottom plates and incubated overnight at 37° C., 5% CO2. On the following day, cells were washed 8 times with “Hard starve” solution (1 L DPBS+1 g D-(+) glucose+10 ml of 7.5% Sodium Bicarbonate+20 ml of 1M HEPES) and incubated for further 2 hours in the same solution. Cells were next treated with compounds with decreasing concentrations (8 points at 3.16 fold dilutions) and incubated for 2 hours at 37° C., 5% CO2. Cells were fixed with 4% paraformaldehyde for 30 min and washed 5 times with TBS-EDTA followed by immuno-staining with fluorescent tag labeled antibodies for pS6 (Ser240/244) (Cell Signaling #9468) and p4EBP1 (Thr 37/46) (Cell Signaling #5123). Nuclei were visualized with Hoechst (ThermoFisher Scientific #H3570) staining. Cells were imaged (InCell 600) using respective fluorescence channels and the potency of mTOR inhibitors was defined by pS6 IC50 (nM).
In vitro potency of mTOR inhibitors was defined by pS6 IC50 (nM) in MEF TSCl−/− cells.
IC50 values are calculated as the average from multiple assays.
The molecule `CCCS(=O)(=O)N[C@H]1C[C@@H]2CC[C@@H](C)[C@@](O)(O2)C(=O)C(=O)N2CCCC[C@H]2C(=O)O[C@H]([C@H](C)C[C@@H]2CC[C@@H](O)[C@H](OC)C2)CC[C@H](C)/C=C(\C)[C@@H](O)[C@@H](OC)C(=O)[C@H](C)C[C@H](C)/C=C/C=C/C=C/1C` [Compound 5] displayed an IC50 of 1.8 nM.
`CCCS(=O)(=O)N[C@@H]1C[C@@H]2CC[C@@H](C)[C@@](O)(O2)C(=O)C(=O)N2CCCC[C@H]2C(=O)O[C@H]([C@H](C)C[C@@H]2CC[C@@H](O)[C@H](OC)C2)CC[C@H](C)/C=C(\C)[C@@H](O)[C@@H](OC)C(=O)[C@H](C)C[C@H](C)/C=C/C=C/C=C/1C` [Compound 6]: the IC50 worked out at 13 nM.
The molecule `CO[C@@H]1C[C@H](C[C@@H](C)[C@@H]2CC[C@H](C)/C=C(\C)[C@@H](O)[C@@H](OC)C(=O)[C@H](C)C[C@H](C)/C=C/C=C/C=C(\C)[C@@H](NS(=O)(=O)C(C)C)C[C@@H]3CC[C@@H](C)[C@@](O)(O3)C(=O)C(=O)N3CCCC[C@H]3C(=O)O2)CC[C@H]1O` [Compound 7] yielded an IC50 of 2.4 nM.
`CO[C@@H]1C[C@H](C[C@@H](C)[C@@H]2CC[C@H](C)/C=C(\C)[C@@H](O)[C@@H](OC)C(=O)[C@H](C)C[C@H](C)/C=C/C=C/C=C(\C)[C@H](NS(=O)(=O)C(C)C)C[C@@H]3CC[C@@H](C)[C@@](O)(O3)C(=O)C(=O)N3CCCC[C@H]3C(=O)O2)CC[C@H]1O` [Compound 8] had a concentration for half-maximal inhibition (IC50) of 4.5 nM.
Turning to `CO[C@@H]1C[C@H](C[C@@H](C)[C@@H]2CC[C@H](C)/C=C(\C)[C@@H](O)[C@@H](OC)C(=O)[C@H](C)C[C@H](C)/C=C/C=C/C=C(\C)[C@@H](NS(=O)(=O)CC(C)C)C[C@@H]3CC[C@@H](C)[C@@](O)(O3)C(=O)C(=O)N3CCCC[C@H]3C(=O)O2)CC[C@H]1O` [Compound 9], the IC50 turned out to be 2.7 nM.
The molecule `CO[C@@H]1C[C@H](C[C@@H](C)[C@@H]2CC[C@H](C)/C=C(\C)[C@@H](O)[C@@H](OC)C(=O)[C@H](C)C[C@H](C)/C=C/C=C/C=C(\C)[C@H](NS(=O)(=O)CC(C)C)C[C@@H]3CC[C@@H](C)[C@@](O)(O3)C(=O)C(=O)N3CCCC[C@H]3C(=O)O2)CC[C@H]1O` [Compound 10] had an IC50 of 12 nM. Compared with the last molecule, the IC50 is about 4.4-fold higher.
On to `CO[C@@H]1C[C@H](C[C@@H](C)[C@@H]2CC[C@H](C)/C=C(\C)[C@@H](O)[C@@H](OC)C(=O)[C@H](C)C[C@H](C)/C=C/C=C/C=C(\C)[C@@H](NS(=O)(=O)C3CCC3)C[C@@H]3CC[C@@H](C)[C@@](O)(O3)C(=O)C(=O)N3CCCC[C@H]3C(=O)O2)CC[C@H]1O` [Compound 13], for which half-maximal inhibition (IC50) required 5.3 nM.
Then `CO[C@@H]1C[C@H](C[C@@H](C)[C@@H]2CC[C@H](C)/C=C(\C)[C@@H](O)[C@@H](OC)C(=O)[C@H](C)C[C@H](C)/C=C/C=C/C=C(\C)[C@H](NS(=O)(=O)C3CCC3)C[C@@H]3CC[C@@H](C)[C@@](O)(O3)C(=O)C(=O)N3CCCC[C@H]3C(=O)O2)CC[C@H]1O` [Compound 14], with 7.2 nM; and `CO[C@@H]1C[C@H](C[C@@H](C)[C@@H]2CC[C@H](C)/C=C(\C)[C@@H](O)[C@@H](OC)C(=O)[C@H](C)C[C@H](C)/C=C/C=C/C=C(\C)[C@@H](NS(=O)(=O)C3CCCC3)C[C@@H]3CC[C@@H](C)[C@@](O)(O3)C(=O)C(=O)N3CCCC[C@H]3C(=O)O2)CC[C@H]1O` [Compound 15], with 3.6 nM; and `CO[C@@H]1C[C@H](C[C@@H](C)[C@@H]2CC[C@H](C)/C=C(\C)[C@@H](O)[C@@H](OC)C(=O)[C@H](C)C[C@H](C)/C=C/C=C/C=C(\C)[C@H](NS(=O)(=O)C3CCCC3)C[C@@H]3CC[C@@H](C)[C@@](O)(O3)C(=O)C(=O)N3CCCC[C@H]3C(=O)O2)CC[C@H]1O` [Compound 16], with 50 nM.
`CO[C@@H]1C[C@H](C[C@@H](C)[C@@H]2CC[C@H](C)/C=C(\C)[C@@H](O)[C@@H](OC)C(=O)[C@H](C)C[C@H](C)/C=C/C=C/C=C(\C)[C@@H](NS(=O)(=O)CCCCl)C[C@@H]3CC[C@@H](C)[C@@](O)(O3)C(=O)C(=O)N3CCCC[C@H]3C(=O)O2)CC[C@H]1O` [Compound 17] gave an IC50 of 1.6 nM.

Values taken from patent US12281125B2, “Rapamycin derivatives” (NOVARTIS AG, priority 2018, dated 2025).
